Patent US20080081788A1, “Diagnosis and treatment for immunoglobulin E (IgE) implicated disorders” (priority 2002, published 2008)
Like-named read-outs stand apart in the source and are kept apart here. Ends that are not written are not given here.

What was measured:
IgE = assay type: in vivo, human; conditions: for IgE levels in saliva: ELISA titer, Normal 16200, Glucotrol 15 mg/day, LT-10 2 mg/day or both
[1] = assay type: in vivo, human; conditions: seven days, compared with expt #1 and #2
Myoglobin = assay type: in vivo, human; conditions: for Myoglobin levels in saliva: ELISA titer, Normal 1800, Glucotrol 15 mg/day, LT-10 2 mg/day or both
NGF = assay type: in vivo, human; conditions: for NGF levels in saliva: ELISA titer, Normal 1200, Glucotrol 15 mg/day, LT-10 2 mg/day or both
Insulin = assay type: in vivo, human; design: Insulin levels in saliva: unit not given here; conditions: for Insulin levels in saliva: ELISA titer, Normal 600, Glucotrol 15 mg/day, LT-10 2 mg/day or both
[2] = in vivo

Cc1cnc(C(=O)NCCc2ccc(S(=O)(=O)NC(=O)NC3CCCCC3)cc2)cn1 [Glucotrol]
IgE levels in saliva (IgE; Day 1): 145800 | IgE levels in saliva (IgE; Day 2): 148600 | IgE levels in saliva (IgE; Day 3): 145800 | IgE levels in saliva (IgE; Day 4): 148600 | IgE levels in saliva (IgE; Day 5): 148600 | IgE levels in saliva (IgE; Day 6): 145800 | IgE levels in saliva (IgE; Day 7): 145800 | effect on IgE levels in saliva, in words (IgE; treatment for seven days): does not contribute in lowering IgE levels | effect on glucose level, in words [1]: did not make appreciable difference | Myoglobin levels in saliva (Myoglobin; Day 1): 1800 | Myoglobin levels in saliva (Myoglobin; Day 2): 3600 | Myoglobin levels in saliva (Myoglobin; Day 3): 3600 | Myoglobin levels in saliva (Myoglobin; Day 4): 2700 | Myoglobin levels in saliva (Myoglobin; Day 5): 2700 | Myoglobin levels in saliva (Myoglobin; Day 6): 2700 | Myoglobin levels in saliva (Myoglobin; Day 7): 3500 | myoglobin level at completion point (FIG. 1) (Myoglobin; end of seven days, times the normal level): increased the level of myoglobin | effect on myoglobin levels in saliva, in words (Myoglobin; treatment for seven days): contributes in increasing myoglobin levels | NGF levels in saliva (NGF; Day 1): 2700 | NGF levels in saliva (NGF; Day 2): 8100 | NGF levels in saliva (NGF; Day 3): 5400 | NGF levels in saliva (NGF; Day 4): 5400 | NGF levels in saliva (NGF; Day 5): 2700 | NGF levels in saliva (NGF; Day 6): 2700 | NGF levels in saliva (NGF; Day 7): 5400 | effect on NGF levels in saliva, in words (NGF; treatment for seven days): perhaps increases NGF levels | Insulin levels in saliva (Insulin; Day 1): 1200 | Insulin levels in saliva (Insulin; Day 2): 800 | Insulin levels in saliva (Insulin; Day 3): 800 | Insulin levels in saliva (Insulin; Day 4): 900 | Insulin levels in saliva (Insulin; Day 5): 750 | Insulin levels in saliva (Insulin; Day 6): 800 | Insulin levels in saliva (Insulin; Day 7): 900 | effect on Insulin levels in saliva, in words (Insulin; treatment for seven days): contributes m lowering Insulin levels

LKAMDPTPPL [LT-10]
side effects [2]: no observable side effects
